Test results: EP1541138A1, “Novel use of peptide compounds for treating status epilepticus or related conditions” (SCHWARZ PHARMA AG, priority 2003, dated 2005)

Legend:
[1] = SSSE after brief electrical stimulation of the perforant path (EEG monitoring for 24 hrs); assay type: in vivo, male Wistar rats; conditions: for cumulative seizure duration over the 24h period / time to the last seizure: Experiment 1a: 60 minutes stimulation, i.v. 10 min after end of perforant path stimulation, SPM 927 50 mg/kg, PHT 50 mg/kg, DZP 10 mg/kg, compared to control animals (Fig. 1); for time after injection within which seizures stopped: 50 mg/kg i.v. (fosphenytoin: phenytoin equivalent) 10 min after end of stimulation (Fig. 2A); for Spike frequency (number of spikes/10 min): 50 mg/kg i.v., vs control animals (Fig. 2B)
Procedure: (§1) Animals: The experiments were performed on male Wistar rats, 280-300g (Simonsen Labs, CA). Animals were kept at a constant room temperature with 12 hours artificial dark-light cycle with free access to standard diet and tap water.
Surgery: Under ketamine (60 mg/kg)/xylazine (15 mg/kg) anesthesia, animals were implanted with a bipolar stimulating electrode into the angular bundle of the perforant path (4.5 mm to left lambda, 1 mm anterior to lambdoid fissure) and a bipolar recording electrode into the granule cell layer of the ipsilateral dentate gyrus (3.5 mm anterior to lambda, 2.2 mm left to saggital fissure). Depth of both electrodes was optimized by monitoring the amplitude and waveform of the population spike evoked from the dentate gyrus by stimuli delivered through the perforant path (single square wave monophasic stimuli, 20 V, 0.1 ms delivered every 10 s).
Induction of self-sustaining status epilepticus (SSSE): Seven days after surgery, animals were connected to a Cardionics 16 channel preamplifier, which was connected to the IBM computer. After 5 minutes of baseline EEG recording, animals were stimulated in the awake state for 60 minutes (Experiment 1 a) or 30 minutes (Experiments 1b and 1 c) with 10 s 20 Hz trains (1 ms square wave, 20 V) delivered every minute, together with 2 Hz continuous stimulation with the same parameters.
EEG monitoring and analysis: EEG from the dentate gyrus was monitored and recorded by means of commercial software (Monitor 8.1 from Stellate Systems). The software was configured for automatic detection and saving of spikes and seizures. Monitoring was performed for 24 hrs. EEG was analyzed off line by means of the same software. Spike distribution was presented as number of spikes per 10 min epoch, and the cumulated duration of seizures for 24 hrs of monitoring were calculated. Statistical analysis was performed by means of T-test. A p value less than 0.05 was considered statistically significant.
Drug administration: SPM 927 (50 mg/kg, 5 animals), phenytoin (PHT) (50 mg/kg), Fosphenytoin (F-PTH Porte-Davis, 50 mg/kg of phenytoin equivalent, 5 animals), diazepam (DZP) (10mg/kg) or vehicle (VEH, 10% DMSO, 6 animals) were given i.v. 10 min after the end of perforant path stimulation in a volume of 1 ml/kg.

[2] = Chemically induced SSSE (cobalt/homocysteine model, homocysteine thiolactone injection); assay type: in vivo, Male Sprague-Dawley rats
Procedure: Male Sprague-Dawley rats were prepared surgically with cobalt powder on the left frontal cortical surface.
Recording and stimulation protocol: four epidural recording electrodes arranged in a square grid (5mm) over the cobalt lesion. EEG was monitored daily beginning 4-5 days following surgery. Status epilepticus was induced by i.p. injection of 5.5mmol/kg homocysteine thiolactone whenever focal motor behaviour and EEG seizures were observed.
Drug administration: SPM 927 was administered (10-100mg/kg) immediately following the second generalized tonic-clonic seizure (GTCS) occurring after homocysteine thiolactone injection.

[3] = Hippocampal damage following SSSE (count of damaged neurons in brain sections, light microscopy); assay type: in vivo, male Wistar rats
Procedure: as §1
Surgery: Under ketamine (60 mg/kg)/xylazine (15 mg/kg) anesthesia, animals were implanted with a bipolar stimulating electrode into the angular bundle of the perforant path (4.5 mm to left lambda, 1 mm anterior to lambdoid fissure) and a bipolar recording electrode into the granule cell layer of the ipsilateral dentate gyrus (3.5 mm anterior to lambda, 2.2 mm left to saggital fissure). […]
Selection of sections for counting: Selection of sections for counting was controlled by the stereotaxic atlas for rats (Paxinos and Watson). The 3 sections selected for quantitation contained dorsal hippocampus and were 1.6 ±0.05mm posterior to bregma.
Location of counting fields ― damage to the pyramidal cell layer was assessed by counting damaged neurons in the subiculum, CA1, CA3, CA3c and the hilus in the dorsal hippocampus. The neurons were assessed individually from the beginning of the subiculum to the end of the CA3c region using an Olympus Provis Ax 70 microscope at a magnification of 40x. […]
Criteria for differentiation of damaged versus non-damaged neurons - neurons were counted only if the majority of the nucleus was present in the section. […]

[4] = Experiment 1b: 30 minutes stimulation
[5] = SPM 927 10-100mg/kg immediately following the second GTCS, 30 min following treatment

## CN1C(=O)CN=C(c2ccccc2)c2cc(Cl)ccc21 [DZP, diazepam, reference compound]
[1]
  cumulative seizure duration over the 24h period: potently and significantly reduced
  time to the last seizure: potently and significantly reduced

## O=C1NC(c2ccccc2)(c2ccccc2)C(=O)N1COP(=O)(O)O [Fosphenytoin, reference compound]
[1]; [4]
  time after injection within which seizures stopped: ≤ 15 min
  Spike frequency (number of spikes/10 min): significantly lower than in control animals but significantly higher than in SPM 927 treated rats

## O=C1NC(=O)C(c2ccccc2)(c2ccccc2)N1 [PHT, phenytoin, reference compound]
[1]
  cumulative seizure duration over the 24h period: potently and significantly reduced
  time to the last seizure: potently and significantly reduced

## COC[C@@H](NC(C)=O)C(=O)NCc1ccccc1 [SPM 927, (R)-2-acetamide-N-benzyl-3-methoxypropionamide]
[2]; [5]
  latency to the first GTCS: prolonged
  mean number of GTCS: potently reduced
[2]; SPM 927 10-100mg/kg immediately following the second GTCS, observed 30 min following treatment
  number of rats experiencing GTCS: reduced in a dose-dependent fashion
[2]; highest dose of SPM 927 (range 10-100mg/kg), 30 min following treatment
  GTCS at the highest dose: completely abolished all GTCS
[1]
  cumulative seizure duration over the 24h period: potently and significantly reduced
  time to the last seizure: potently and significantly reduced
[1]; Experiment 1a, SPM 927 50 mg/kg i.v. vs DZP 10 mg/kg and PHT 50 mg/kg (Fig. 1)
  efficacy on both parameters (cumulative seizure duration, time to the last seizure) when compared to DZP and PHT: somewhat more efficacious
[1]; Experiment 1b: 30 minutes stimulation, 50 mg/kg i.v. (Fig. 2A)
  recurrence of seizures over the next 24 hrs: did not recur
[1]; Experiment 1b: 30 minutes stimulation, 50 mg/kg i.v. (Fig. 2B)
  time for which only a few single spikes were recorded: about 12 hrs
[1]; [4]
  time after injection within which seizures stopped: ≤ 15 min
  Spike frequency (number of spikes/10 min): significantly decreased
[3]; Experiment 1c: 30 minutes stimulation, SPM 927 50 mg/kg i.v., brains collected 72 hours after SSSE, subiculum, CA1, CA3, CA3c, hilus
  injured neurons in hippocampal fields: only an occasional injured neuron in any hippocampal field
[3]; Experiment 1c, vs untreated rats, by hippocampal field
  protection against neuronal injury, statistical significance: statistically significant in the subiculum, CA1 and CA3
